# How the values were obtained:
# Assay in all cases: radiometric filter-binding kinase assay
# [1] = system: AKT1 (human), P31749 [S473D]
# BTK (human) = BTK (human) (UniProt Q06187)
# CSNK2A1 (human) = CSNK2A1 (human) (UniProt P68400)
# CaMK1 (human) = CaMK1 (human) (UniProt Q14012)
# DAPK1 (human) = DAPK1 (human) (UniProt P53355)
# DYRK1A (human) = DYRK1A (human) (UniProt Q13627)
# DYRK2 (human) = DYRK2 (human) (UniProt Q92630)
# DYRK3 (human) = DYRK3 (human) (UniProt O43781)
# EEF2K (human) = EEF2K (human) (UniProt O00418)
# EPHA2 (human) = EPHA2 (human) (UniProt P29317)
# EPHB1 (human) = EPHB1 (human) (UniProt P54762)
# EPHB3 (human) = EPHB3 (human) (UniProt P54753)
# ERBB4 (human) = ERBB4 (human) (UniProt Q15303)
# HIPK1 (human) = HIPK1 (human) (UniProt Q86Z02)
# HIPK2 (human) = HIPK2 (human) (UniProt Q9H2X6)
# HIPK3 (human) = HIPK3 (human) (UniProt Q9H422)
# IKBKE (human) = IKBKE (human) (UniProt Q14164)
# LCK (mouse) = settings: accession and sequence are those of the human protein
# MAP2K6 (human) = MAP2K6 (human) (UniProt P52564)
# MAP3K9 (human) = MAP3K9 (human) (UniProt P80192)
# MAPK11 (human) = MAPK11 (human) (UniProt Q15759)
# MAPK13 (human) = MAPK13 (human) (UniProt O15264)
# MAPK14 (human) = MAPK14 (human) (UniProt Q16539)
# MAPKAPK5 (human) = MAPKAPK5 (human) (UniProt Q8IW41); settings: compound 100.0 µM
# MARK1 (human) = MARK1 (human) (UniProt Q9P0L2)
# MARK3 (human) = MARK3 (human) (UniProt P27448)
# MST4 (human) = MST4 (human) (UniProt Q9P289)
# NUAK1 (human) = NUAK1 (human) (UniProt O60285)
# PAK4 (human) = PAK4 (human) (UniProt O96013)
# PAK6 (human) = PAK6 (human) (UniProt Q9NQU5)
# PAK7 (human) = PAK7 (human) (UniProt Q9P286)
# PRKCZ (human) = PRKCZ (human) (UniProt Q05513)
# ROCK2 (rat) = settings: accession and sequence are those of the human protein
# RPS6KA5 KD1 KD2 (human) = RPS6KA5 KD1 KD2 (human) (UniProt O75582)
# TAOK1 (human) = TAOK1 (human) (UniProt Q7L7X3)
# NEK6 (human) = NEK6 (human) (UniProt Q9HC98)
# EPHB3 (human), sequence (P54753 whole entry, looked up): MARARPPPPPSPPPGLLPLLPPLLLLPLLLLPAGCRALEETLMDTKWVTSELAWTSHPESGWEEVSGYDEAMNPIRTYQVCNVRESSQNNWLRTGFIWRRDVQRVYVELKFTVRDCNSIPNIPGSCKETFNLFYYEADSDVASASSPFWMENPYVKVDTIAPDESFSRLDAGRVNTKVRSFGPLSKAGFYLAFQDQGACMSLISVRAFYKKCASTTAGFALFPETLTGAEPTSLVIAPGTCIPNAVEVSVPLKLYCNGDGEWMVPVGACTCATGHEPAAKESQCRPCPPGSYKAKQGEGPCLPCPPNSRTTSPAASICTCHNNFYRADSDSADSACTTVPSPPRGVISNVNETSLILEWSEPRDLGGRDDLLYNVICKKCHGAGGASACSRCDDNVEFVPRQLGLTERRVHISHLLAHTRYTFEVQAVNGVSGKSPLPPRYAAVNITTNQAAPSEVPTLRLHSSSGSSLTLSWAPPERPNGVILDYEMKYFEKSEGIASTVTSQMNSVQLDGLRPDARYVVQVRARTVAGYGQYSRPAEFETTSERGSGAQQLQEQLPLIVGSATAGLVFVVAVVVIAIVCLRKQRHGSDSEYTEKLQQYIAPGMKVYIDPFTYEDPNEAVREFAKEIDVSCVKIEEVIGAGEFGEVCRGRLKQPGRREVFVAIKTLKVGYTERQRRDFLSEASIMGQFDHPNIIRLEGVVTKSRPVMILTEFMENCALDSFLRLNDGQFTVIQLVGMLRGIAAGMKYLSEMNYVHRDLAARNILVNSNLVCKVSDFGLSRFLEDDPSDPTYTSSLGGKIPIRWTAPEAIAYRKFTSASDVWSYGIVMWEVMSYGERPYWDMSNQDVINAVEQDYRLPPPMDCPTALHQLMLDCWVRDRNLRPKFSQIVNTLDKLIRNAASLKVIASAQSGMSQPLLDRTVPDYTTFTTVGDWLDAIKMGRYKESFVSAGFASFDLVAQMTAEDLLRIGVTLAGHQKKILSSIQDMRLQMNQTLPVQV
# MAPK11 (human), sequence (Q15759 whole entry, looked up): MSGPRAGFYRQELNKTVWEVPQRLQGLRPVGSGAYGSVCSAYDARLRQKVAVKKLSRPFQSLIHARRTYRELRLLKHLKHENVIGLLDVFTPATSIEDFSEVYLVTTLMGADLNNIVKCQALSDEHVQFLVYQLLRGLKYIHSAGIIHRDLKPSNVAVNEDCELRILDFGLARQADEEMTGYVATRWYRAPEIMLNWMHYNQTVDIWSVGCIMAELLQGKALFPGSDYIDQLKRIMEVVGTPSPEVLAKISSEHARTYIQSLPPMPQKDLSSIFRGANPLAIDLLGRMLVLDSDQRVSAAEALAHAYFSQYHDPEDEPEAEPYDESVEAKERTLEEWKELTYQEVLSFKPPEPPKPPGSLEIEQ
# HIPK2 (human), sequence (Q9H2X6 whole entry, looked up): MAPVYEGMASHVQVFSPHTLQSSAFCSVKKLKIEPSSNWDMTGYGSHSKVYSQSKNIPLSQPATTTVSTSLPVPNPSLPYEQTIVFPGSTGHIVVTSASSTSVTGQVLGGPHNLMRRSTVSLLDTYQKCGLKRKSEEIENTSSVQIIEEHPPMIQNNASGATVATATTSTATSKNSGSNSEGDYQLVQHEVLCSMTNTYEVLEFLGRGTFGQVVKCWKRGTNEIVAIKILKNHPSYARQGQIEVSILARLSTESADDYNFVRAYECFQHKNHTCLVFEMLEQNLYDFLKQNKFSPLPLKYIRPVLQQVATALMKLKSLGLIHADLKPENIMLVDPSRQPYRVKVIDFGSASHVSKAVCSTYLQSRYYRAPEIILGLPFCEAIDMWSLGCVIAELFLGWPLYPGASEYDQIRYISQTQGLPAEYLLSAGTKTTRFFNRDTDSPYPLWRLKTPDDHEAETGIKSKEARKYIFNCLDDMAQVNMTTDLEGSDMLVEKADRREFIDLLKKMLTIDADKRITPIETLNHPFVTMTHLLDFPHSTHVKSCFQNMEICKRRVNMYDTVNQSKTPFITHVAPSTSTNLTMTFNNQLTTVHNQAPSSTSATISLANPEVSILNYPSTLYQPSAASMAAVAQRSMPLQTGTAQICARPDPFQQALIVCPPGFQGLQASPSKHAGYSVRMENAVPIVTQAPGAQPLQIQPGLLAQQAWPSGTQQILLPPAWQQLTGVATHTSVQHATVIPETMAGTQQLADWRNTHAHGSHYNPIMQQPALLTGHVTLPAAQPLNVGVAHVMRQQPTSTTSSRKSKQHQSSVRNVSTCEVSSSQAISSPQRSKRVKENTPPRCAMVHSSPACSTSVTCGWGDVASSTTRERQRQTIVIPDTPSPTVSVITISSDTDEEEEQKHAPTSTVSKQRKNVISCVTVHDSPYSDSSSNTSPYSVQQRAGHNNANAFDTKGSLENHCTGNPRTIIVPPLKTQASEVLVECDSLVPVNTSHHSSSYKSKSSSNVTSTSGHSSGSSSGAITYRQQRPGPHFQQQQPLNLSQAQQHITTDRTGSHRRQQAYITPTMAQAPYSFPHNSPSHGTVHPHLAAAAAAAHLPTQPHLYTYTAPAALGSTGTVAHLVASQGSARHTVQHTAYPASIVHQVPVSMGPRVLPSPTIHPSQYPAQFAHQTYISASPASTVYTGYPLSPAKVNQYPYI
# ERBB4 (human), sequence (Q15303 whole entry, looked up): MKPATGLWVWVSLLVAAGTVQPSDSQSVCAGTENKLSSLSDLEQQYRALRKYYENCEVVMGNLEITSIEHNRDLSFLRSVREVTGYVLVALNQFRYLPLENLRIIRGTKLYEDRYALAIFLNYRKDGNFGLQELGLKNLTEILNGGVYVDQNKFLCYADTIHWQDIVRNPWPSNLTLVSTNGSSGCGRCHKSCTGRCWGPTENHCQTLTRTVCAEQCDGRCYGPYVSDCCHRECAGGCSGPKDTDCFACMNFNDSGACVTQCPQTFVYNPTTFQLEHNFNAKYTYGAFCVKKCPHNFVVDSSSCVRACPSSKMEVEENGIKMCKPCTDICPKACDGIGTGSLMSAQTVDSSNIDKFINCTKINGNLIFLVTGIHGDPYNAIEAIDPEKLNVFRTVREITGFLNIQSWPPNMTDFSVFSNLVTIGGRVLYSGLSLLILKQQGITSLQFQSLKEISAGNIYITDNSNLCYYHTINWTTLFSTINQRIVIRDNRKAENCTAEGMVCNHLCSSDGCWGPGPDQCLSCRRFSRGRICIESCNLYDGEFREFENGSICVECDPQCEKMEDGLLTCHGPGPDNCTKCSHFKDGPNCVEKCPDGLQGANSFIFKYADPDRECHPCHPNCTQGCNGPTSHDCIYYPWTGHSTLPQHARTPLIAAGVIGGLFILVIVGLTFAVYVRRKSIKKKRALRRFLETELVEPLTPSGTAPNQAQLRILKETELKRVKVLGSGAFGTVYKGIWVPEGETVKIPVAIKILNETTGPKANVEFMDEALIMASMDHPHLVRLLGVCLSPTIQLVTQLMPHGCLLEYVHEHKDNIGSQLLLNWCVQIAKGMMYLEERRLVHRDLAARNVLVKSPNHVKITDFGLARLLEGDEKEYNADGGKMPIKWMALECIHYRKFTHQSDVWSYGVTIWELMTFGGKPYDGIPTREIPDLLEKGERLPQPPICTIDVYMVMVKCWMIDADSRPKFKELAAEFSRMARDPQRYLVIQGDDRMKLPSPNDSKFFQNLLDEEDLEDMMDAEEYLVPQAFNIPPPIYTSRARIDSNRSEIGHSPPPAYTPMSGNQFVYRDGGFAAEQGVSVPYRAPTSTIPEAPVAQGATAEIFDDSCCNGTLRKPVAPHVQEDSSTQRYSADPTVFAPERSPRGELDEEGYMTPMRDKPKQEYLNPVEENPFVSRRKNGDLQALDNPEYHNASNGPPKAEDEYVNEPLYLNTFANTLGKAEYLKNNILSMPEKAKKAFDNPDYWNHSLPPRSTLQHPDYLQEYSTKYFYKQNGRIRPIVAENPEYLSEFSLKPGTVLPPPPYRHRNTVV
# MAPK14 (human), sequence (Q16539 whole entry, looked up): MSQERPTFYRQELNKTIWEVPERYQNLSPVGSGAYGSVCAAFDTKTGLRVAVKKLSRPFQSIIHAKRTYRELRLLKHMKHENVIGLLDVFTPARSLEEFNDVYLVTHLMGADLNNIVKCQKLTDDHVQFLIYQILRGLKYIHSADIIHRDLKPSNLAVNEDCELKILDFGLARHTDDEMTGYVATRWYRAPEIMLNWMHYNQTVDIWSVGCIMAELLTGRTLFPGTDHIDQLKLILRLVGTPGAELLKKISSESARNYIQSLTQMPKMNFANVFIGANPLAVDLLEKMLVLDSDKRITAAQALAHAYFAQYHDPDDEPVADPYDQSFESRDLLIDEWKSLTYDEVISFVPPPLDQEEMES
# RPS6KA5 KD1 KD2 (human), sequence (O75582 whole entry, looked up): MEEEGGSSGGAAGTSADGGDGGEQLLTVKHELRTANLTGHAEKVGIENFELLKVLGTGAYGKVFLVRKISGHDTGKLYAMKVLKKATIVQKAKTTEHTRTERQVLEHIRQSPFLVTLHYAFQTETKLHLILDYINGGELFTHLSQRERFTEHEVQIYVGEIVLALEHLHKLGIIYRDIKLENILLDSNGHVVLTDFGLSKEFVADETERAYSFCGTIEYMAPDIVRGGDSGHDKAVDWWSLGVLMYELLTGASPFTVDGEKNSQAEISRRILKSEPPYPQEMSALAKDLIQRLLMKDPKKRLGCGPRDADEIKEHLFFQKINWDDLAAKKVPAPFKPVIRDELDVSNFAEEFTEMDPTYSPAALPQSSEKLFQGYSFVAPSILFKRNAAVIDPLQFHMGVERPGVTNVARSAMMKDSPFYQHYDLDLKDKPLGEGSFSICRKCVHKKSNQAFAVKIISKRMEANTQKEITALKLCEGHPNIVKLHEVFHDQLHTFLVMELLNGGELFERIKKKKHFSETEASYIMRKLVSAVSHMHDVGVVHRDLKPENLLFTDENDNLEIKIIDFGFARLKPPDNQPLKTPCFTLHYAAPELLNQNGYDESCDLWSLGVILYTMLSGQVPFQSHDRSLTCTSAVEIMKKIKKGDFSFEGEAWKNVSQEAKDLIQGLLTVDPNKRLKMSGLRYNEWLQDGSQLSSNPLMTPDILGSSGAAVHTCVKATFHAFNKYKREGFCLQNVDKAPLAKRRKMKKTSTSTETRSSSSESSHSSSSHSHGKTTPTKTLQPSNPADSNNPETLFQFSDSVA
compound,measurement,setting,value
Cc1cc(N=Nc2cc(S(=O)(=O)O)c(C)cc2C)c(N)cc1O,residual activity,[1]; compound 100.0 µM,108%
same,residual activity,BTK (human); compound 100.0 µM,102%
same,residual activity,CSNK2A1 (human); compound 100.0 µM,51%
same,residual activity,CaMK1 (human); compound 100.0 µM,45%
same,residual activity,DAPK1 (human); compound 100.0 µM,82%
same,residual activity,DYRK1A (human); compound 100.0 µM,113%
same,residual activity,DYRK2 (human); compound 100.0 µM,78%
same,residual activity,DYRK3 (human); compound 100.0 µM,65%
same,residual activity,EEF2K (human); compound 100.0 µM,92%
same,residual activity,EPHA2 (human); compound 100.0 µM,89%
same,residual activity,EPHB1 (human); compound 100.0 µM,97%
same,residual activity,EPHB3 (human); compound 100.0 µM,48%
same,residual activity,ERBB4 (human); compound 100.0 µM,99%
same,residual activity,HIPK1 (human); compound 100.0 µM,94%
same,residual activity,HIPK2 (human); compound 100.0 µM,42%
same,residual activity,HIPK3 (human); compound 100.0 µM,74%
same,residual activity,IKBKE (human); compound 100.0 µM,94%
same,residual activity,LCK (mouse); compound 100.0 µM,112%
same,residual activity,MAP2K6 (human); compound 100.0 µM,113%
same,residual activity,MAP3K9 (human); compound 100.0 µM,58%
same,residual activity,MAPK11 (human); compound 100.0 µM,58%
same,residual activity,MAPK13 (human); compound 100.0 µM,109%
same,residual activity,MAPK14 (human); compound 100.0 µM,58%
same,residual activity,MAPKAPK5 (human),70%
same,residual activity,MARK1 (human); compound 100.0 µM,99%
same,residual activity,MARK3 (human); compound 100.0 µM,96%
same,residual activity,MST4 (human); compound 100.0 µM,67%
same,residual activity,NUAK1 (human); compound 100.0 µM,44%
same,residual activity,PAK4 (human); compound 100.0 µM,70%
same,residual activity,PAK6 (human); compound 100.0 µM,96%
same,residual activity,PAK7 (human); compound 100.0 µM,87%
same,residual activity,PRKCZ (human); compound 100.0 µM,97%
same,residual activity,ROCK2 (rat); compound 100.0 µM,105%
same,residual activity,RPS6KA5 KD1 KD2 (human); compound 100.0 µM,84%
same,residual activity,TAOK1 (human); compound 100.0 µM,109%
C=C1C(=O)OC2C1CC/C(C)=C/CCC1(C)OC21 (stereo not drawn),residual activity,[1]; compound 1.0 µM,107%
same,residual activity,[1]; compound 5.0 µM,106%
same,residual activity,BTK (human); compound 1.0 µM,117%
same,residual activity,BTK (human); compound 5.0 µM,85%
same,residual activity,CSNK2A1 (human); compound 1.0 µM,117%
same,residual activity,CSNK2A1 (human); compound 5.0 µM,106%
same,residual activity,CaMK1 (human); compound 1.0 µM,116%
same,residual activity,CaMK1 (human); compound 5.0 µM,104%
same,residual activity,DAPK1 (human); compound 1.0 µM,102%
same,residual activity,DAPK1 (human); compound 5.0 µM,107%
same,residual activity,DYRK1A (human); compound 1.0 µM,120%
same,residual activity,DYRK1A (human); compound 5.0 µM,101%
same,residual activity,DYRK2 (human); compound 1.0 µM,113%
same,residual activity,DYRK2 (human); compound 5.0 µM,101%
same,residual activity,DYRK3 (human); compound 1.0 µM,124%
same,residual activity,DYRK3 (human); compound 5.0 µM,106%
same,residual activity,EEF2K (human); compound 1.0 µM,107%
same,residual activity,EEF2K (human); compound 5.0 µM,91%
same,residual activity,EPHA2 (human); compound 1.0 µM,104%
same,residual activity,EPHA2 (human); compound 5.0 µM,99%
same,residual activity,EPHB1 (human); compound 1.0 µM,103%
same,residual activity,EPHB1 (human); compound 5.0 µM,115%
same,residual activity,EPHB3 (human); compound 1.0 µM,95%
same,residual activity,EPHB3 (human); compound 5.0 µM,115%
same,residual activity,ERBB4 (human); compound 1.0 µM,98%
same,residual activity,ERBB4 (human); compound 5.0 µM,90%
same,residual activity,HIPK1 (human); compound 1.0 µM,114%
same,residual activity,HIPK1 (human); compound 5.0 µM,106%
same,residual activity,HIPK2 (human); compound 1.0 µM,124%
same,residual activity,HIPK2 (human); compound 5.0 µM,113%
same,residual activity,HIPK3 (human); compound 1.0 µM,110%
same,residual activity,HIPK3 (human); compound 5.0 µM,122%
same,residual activity,IKBKE (human); compound 1.0 µM,112%
same,residual activity,IKBKE (human); compound 5.0 µM,108%
same,residual activity,LCK (mouse); compound 1.0 µM,112%
same,residual activity,MAP2K6 (human); compound 1.0 µM,96%
same,residual activity,MAP2K6 (human); compound 5.0 µM,92%
same,residual activity,MAP3K9 (human); compound 1.0 µM,117%
same,residual activity,MAP3K9 (human); compound 5.0 µM,95%
same,residual activity,MAPK11 (human); compound 1.0 µM,111%
same,residual activity,MAPK11 (human); compound 5.0 µM,121%
same,residual activity,MAPK13 (human); compound 1.0 µM,115%
same,residual activity,MAPK13 (human); compound 5.0 µM,113%
same,residual activity,MAPK14 (human); compound 1.0 µM,105%
same,residual activity,MAPK14 (human); compound 5.0 µM,111%
same,residual activity,MARK1 (human); compound 1.0 µM,100%
same,residual activity,MARK1 (human); compound 5.0 µM,94%
same,residual activity,MARK3 (human); compound 1.0 µM,123%
same,residual activity,MARK3 (human); compound 5.0 µM,98%
same,residual activity,MST4 (human); compound 1.0 µM,88%
same,residual activity,MST4 (human); compound 5.0 µM,94%
same,residual activity,NEK6 (human); compound 1.0 µM,113%
same,residual activity,NEK6 (human); compound 5.0 µM,82%
same,residual activity,NUAK1 (human); compound 1.0 µM,130%
same,residual activity,NUAK1 (human); compound 5.0 µM,111%
same,residual activity,PAK4 (human); compound 1.0 µM,93%
same,residual activity,PAK4 (human); compound 5.0 µM,104%
same,residual activity,PAK6 (human); compound 1.0 µM,119%
same,residual activity,PAK6 (human); compound 5.0 µM,115%
same,residual activity,PAK7 (human); compound 1.0 µM,117%
same,residual activity,PAK7 (human); compound 5.0 µM,98%
same,residual activity,PRKCZ (human); compound 1.0 µM,117%
same,residual activity,PRKCZ (human); compound 5.0 µM,98%
same,residual activity,ROCK2 (rat); compound 1.0 µM,123%
same,residual activity,ROCK2 (rat); compound 5.0 µM,113%
same,residual activity,RPS6KA5 KD1 KD2 (human); compound 1.0 µM,110%
same,residual activity,RPS6KA5 KD1 KD2 (human); compound 5.0 µM,106%
same,residual activity,TAOK1 (human); compound 5.0 µM,103%

# — the kinase profiling compilation of Christmann-Franck et al. (2016)
